# In patent US7056275B2, “Radiotherapy” (Algeta A/S, priority 2000, dated 2006):
# Where two headings read alike, the source gives them in different places.
# Key:
# [1] = for Tissue distribution, Blood / Tissue distribution, Brain / Tissue distribution, Femur / Tissue distribution, Heart / Tissue distribution, Kidney / Tissue distribution, L.I. / Tissue distribution, Liver / Tissue distribution, Lung / Tissue distribution, Muscle / Tissue distribution, Rib / Tissue distribution, S.I. / Tissue distribution, Skull / Tissue distribution, Spleen / Tissue distribution, Stomach: +/- SD; for Femur/Blood ratio / Femur/Kidneys ratio / Femur/Liver ratio / Femur/Spleen ratio: Balb C mice; for femur to blood and femur to tissue ratios compared to cationic radium-223 (in words): chelates at 4 hours vs radium-223 at 6 hours after injection, for some organs
# Description: The biodistribution of thorium and actinium bound to polyphosphonate was studied in mice.
# Balb/C mice with a bodyweight in the range of 11–16 g were used in the biodistribution experiments. The compounds were administered by intravenous injection of 100–200 μl of the preparation for each animal in paired label arrangement. The compounds ^228Ac-DOTMP, ^227Th-DOTMP, ^227Th-DTMP and ^227Th-acetate/MES were investigated. Approximately 5 kBq of ^[…] and 5 kBq of ^228Ac was injected. Animals were sacrificed by cervical dislocation. The tissue distribution was determined on 3 mice for each pair of compounds. The tissue distribution was determined after 4 hours for ^228Ac-DOTMP, ^227Th-DOTMP, ^227Th-DTMP and ^227Th-acetate.
# In general, radioactivity in the tissue samples was measured by using a NaI (Tl) well-type detector and by liquid scintillation counting (Beckmann LS6500, Beckmann, Fullerton, Calif., USA). ^227Th was measured by using a HPGe detector (Canberra, Conn, USA) and also by liquid scintillation counting after dissolution of tissue samples and allowing decay of ^228Ac. ^228Ac was measured by the HPGe detector and the NaI(Tl) detector.
# Samples of the radioactive preparations of the nuclides were used as references to account for physical decay and radiation crossover in the detection procedures.
# [2] = cationic species, mice, published data; cited from earlier work
# [3] = 4 hours after injection, i.v., Balb/C mice
# [4] = bone seeking chelates, 4 hours after injection
# [5] = cationic radium-223, 6 hours after injection
Compound,"Tissue distribution, Blood [1, 3]","Tissue distribution, Brain [1, 3]","Tissue distribution, Femur [1, 3]","Tissue distribution, Heart [1, 3]","Tissue distribution, Kidney [1, 3]","Tissue distribution, L.I. [1, 3]","Tissue distribution, Liver [1, 3]","Tissue distribution, Lung [1, 3]","Tissue distribution, Muscle [1, 3]","Tissue distribution, Rib [1, 3]","Tissue distribution, S.I. [1, 3]","Tissue distribution, Skull [1, 3]","Tissue distribution, Spleen [1, 3]","Femur/Blood ratio [1, 4]","Femur/Kidneys ratio [1, 4]","Femur/Liver ratio [1, 4]","Femur/Spleen ratio [1, 4]",femur to blood and femur to tissue ratios compared to cationic radium-223 (in words) [1],"Tissue distribution, Stomach [1, 3]",other results
O=P([O-])(O)CN1CCN(CP(=O)([O-])O)CCN(CP(=O)(O)O)CCN(CP(=O)([O-])O)CC1.[228Ac+3] [Ac-228 DOTMP],<0.1 % I.D./g,<0.1 % I.D./g,20.67 ± 2.23 % I.D./g,<0.1 % I.D./g,2.7 ± 2.4 % I.D./g,0.20 ± 0.11 % I.D./g,1.26 ± 0.9 % I.D./g,0.20 ± 0.10 % I.D./g,0.30 ± 0.11 % I.D./g,10.5 ± 3.5 % I.D./g,0.14 ± 0.07 % I.D./g,10.7 ± 2.7 % I.D./g,0.51 ± 0.10 % I.D./g,>196,7.7,16.4,41.3,better,,
CC(=O)[O-].CC(=O)[O-].CC(=O)[O-].[Ac+3] [cationic actinium],,,,,,,,,,,,,,,,,,,,selective bone uptake relative to soft tissue uptake (in words) [2]: does not show sufficient selective bone uptake relative to soft tissue uptake
"CC(=O)[O-].CC(=O)[O-].CC(=O)[O-].CC(=O)[O-].[227Th+4] [^227Th-acetate, reference compound]",1.2 ± 0.4 % I.D./g,<0.1 % I.D./g,23.4 ± 6.9 % I.D./g,2.6 ± 0.2 % I.D./g,7.7 ± 0.7 % I.D./g,1.7 ± 0.1 % I.D./g,56.5 ± 9.4 % I.D./g,2.6 ± 0.4 % I.D./g,1.1 % I.D./g,14.6 ± 4.4 % I.D./g,2.3 ± 0.1 % I.D./g,18.9 ± 7.6 % I.D./g,14.2 ± 2.8 % I.D./g,,,,,,4.6 ± 1.0 % I.D./g,"bone uptake (in words) ([1]; 4 hours after injection, mice): high and similar to the observed values with the bone-seeking polyphosphonate complexing agents; suitability for in vivo bone targeting given affinity for soft tissues, e.g. liver and spleen (in words) ([1]; 4 hours after injection, mice): unsuitable for in vivo bone targeting"
O=P([O-])(O)CN1CCN(CP(=O)([O-])O)CCN(CP(=O)([O-])O)CCN(CP(=O)([O-])O)CC1.[227Th+4] [Th-227 DOTMP],<0.1 % I.D./g,<0.1 % I.D./g,20.55 ± 2.21 % I.D./g,<0.1 % I.D./g,3.43 ± 1.70 % I.D./g,0.19 ± 0.10 % I.D./g,0.39 ± 0.19 % I.D./g,0.18 ± 0.09 % I.D./g,0.29 ± 0.17 % I.D./g,11.06 ± 3.81 % I.D./g,0.14 ± 0.08 % I.D./g,10.8 ± 2.94 % I.D./g,0.51 ± 0.14 % I.D./g,>196,6.0,52.7,40.3,better,0.15 ± 0.05 % I.D./g,"Tissue distribution, Urine ([1]; 4 hours after injection, i.v., Balb/C mice, n = 1): 21.1 % I.D./g"
"[223Ra] [^223Ra, reference compound]",,,,,,,,,,,,,,,,,,,,"Femur/Blood ratio [1, 5]: 129; Femur/Kidneys ratio [1, 5]: 6.4; Femur/Liver ratio [1, 5]: 29.1; Femur/Spleen ratio [1, 5]: 6.4"
O=P([O-])(O)CN(CCN(CP(=O)([O-])O)CP(=O)([O-])O)CCN(CP(=O)([O-])O)CP(=O)(O)O.[227Th+4] [Th-227 DTMP],<0.1 % I.D./g,<0.1 % I.D./g,19.58 ± 3.58 % I.D./g,<0.1 % I.D./g,1.38 ± 0.54 % I.D./g,0.15 ± 0.03 % I.D./g,0.40 ± 0.43 % I.D./g,0.12 ± 0.04 % I.D./g,0.63 ± 0.33 % I.D./g,8.83 ± 5.06 % I.D./g,0.56 ± 0.63 % I.D./g,12.3 ± 3.14 % I.D./g,0.13 ± 0.04 % I.D./g,>196,14.2,49,151,better,0.70 ± 0.80 % I.D./g,
